The values below come from patent US11396497B2, “Proteasome inhibitors” (New Mexico Tech University Research Park Corporation, priority 2018, dated 2022).

By IC50 is commonly meant the point on the concentration scale where inhibition reaches its midpoint.

Series [1] relates to MCF7 cells.
Protocol: (§3) The cells were incubated at 37° C. in a humidified atmosphere with 5% CO2.
(§4) 100 μL of cells were added to each well of a 96 well microtiter plate at a concentration of 4×10^4 cells/mL and incubated overnight to allow proper adhesion. (RPMI 8226 cells were plated at 4×10^5 cells/mL). The cells were treated with the panel of test compounds at a series of concentrations, along with vehicle control DMSO and untreated cells as controls. After 48 h incubation, 20 μL of MTT reagent (3-(4,5-dimethylthiazol-2-yl)-2,5-diphenyltetrazolium bromide) in PBS (5 mg/mL) was added to each well of the plates. The plate was incubated for 2 h at 37° C. For adherent cell lines, the media was removed from each well of the plate and the resulting formazan crystals dissolved in 100 μL of DMSO. For RPMI 8226 cells, 200 ul of DMF/SDS mix (50% DMF. 10% w/v SDS pH<4) was used to solubilize the formazan crystals. Optical density (OD) at 490 nm was measured using a microplate reader. Cells treated with 1 μM phenyl arsine oxide (PAO) served as a positive cell-killing control. Technical replicates of these assays were performed in biological quadruplicate, and the three best values were used for analysis in order to eliminate outliers. Data presented are the average IC50 value calculated from at least 3 technical replicates with the corresponding standard deviation.
In series [2] the test system is MDA-MB-231 cells.
Series [3] deals with RPMI 8226 cells.
Protocol: as §3, §4
Series [4] deals with T1, trypsin-like activity of the 26S proteasome (Homo sapiens, UniProt Q99436).
T1 construct: endogenous in cells; host or cells: Jurkat (ATCC TIB-152, E6-1 clone) cell lysate
T1 sequence (Q99436 44-277): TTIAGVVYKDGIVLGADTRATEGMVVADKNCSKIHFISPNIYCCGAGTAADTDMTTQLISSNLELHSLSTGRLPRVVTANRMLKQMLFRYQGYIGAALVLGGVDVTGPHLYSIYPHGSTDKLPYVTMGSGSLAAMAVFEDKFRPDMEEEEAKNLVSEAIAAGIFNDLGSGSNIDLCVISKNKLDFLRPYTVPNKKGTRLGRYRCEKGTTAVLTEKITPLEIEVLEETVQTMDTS
In words: Proteasome assay, trypsin-like (T-L) activity, SUC-RLR-AMC, Jurkat cell lysate. Type of series: biochemical. The method, then: (§1) The lysate was stored at −80° C. until the sample was used for the proteasome assay.
(§2) The compounds were diluted with lysis buffer; 10 μL of the compound-containing solution was added to the test wells at ten times the final concentration. […] The results are reported as the average of at least 3 technical replicates of IC50 values for proteasome inhibition.

In series [5] the target is T2, chymotrypsin-like activity of the 26S proteasome (Homo sapiens, UniProt P28074).
T2 construct: endogenous in cells; host or cells: Jurkat (ATCC TIB-152, E6-1 clone) cell lysate
T2 sequence (P28074 60-263): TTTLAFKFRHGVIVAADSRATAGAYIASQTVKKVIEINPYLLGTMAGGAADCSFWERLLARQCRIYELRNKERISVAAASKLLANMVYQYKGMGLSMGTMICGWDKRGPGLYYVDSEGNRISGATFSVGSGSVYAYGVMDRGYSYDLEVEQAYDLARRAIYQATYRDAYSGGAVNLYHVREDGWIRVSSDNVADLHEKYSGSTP
In words: Proteasome assay, chymotrypsin-like (ChT-L) activity, Suc-LLVY-AMC, Jurkat cell lysate. Type of series: biochemical. As to conditions: for IC50: ± S.D., read-out: Proteasome Inhibition ChT-like IC50. On the procedure:
as §1, §2

Series [6] deals with MCF7 cells. In words: MTT assay cytotoxicity MCF7. As to conditions: read-out: Cytotoxicity MCF7 IC50. (In general: Tetrazolium assays rely on reduction of a dye to a coloured formazan, in cell work by metabolically active cells.)
Protocol: as §3, §4
Series [7] has as its system RPMI 8226 cells. Nature of the series: MTT assay cytotoxicity RPMI 8226. To be noted: read-out: Cytotoxicity RPMI 8226 IC50.
Protocol: as §3, §4
Series [8] concerns MDA-MB-231 cells. Nature of the series: MTT assay cytotoxicity MDA-MB-231. To be noted: read-out: Cytotoxicity MDA-MB-231 IC50.
The mark [9] stands for this setting: Table 3, P2/P3 analogues, ± S.D., read-out: Proteasome Inhibition T-L-like IC50.

Where two headings read alike, the source gives them in different places.

As for `CC[C@H](C)[C@@H]1C(=O)O[C@H]1C(=O)N[C@H](C(=O)N[C@H](C(=O)OCc1ccccc1)C(C)C)C(C)(C)C` [Compound 10e, Benzyl((S)-2-((2R,3S)-3-((S)-sec-butyl)-4-oxooxetane-2-carboxamido)-3,3-dimethylbutanoyl)-L-valinate], the IC50 in the series with MCF7 cells [1] was 2.14 ± 0.122 µM; in the series with MDA-MB-231 cells [2] it was 1.03 ± 0.644 µM; with RPMI 8226 cells [3] it was 1.05 ± 0.75 µM; in series [4] (setting [9]), 5.18 ± 1.49 µM; in series [5] (Table 3, P2/P3 analogues) it was 0.0229 ± 0.0025 µM. The “subunit selectivity, ChT-L over T-L (in words)” value in series [5] is given as “enhanced subunit selectivity”.

For the molecule `CC[C@H](C)[C@@H]1C(=O)O[C@H]1C(=O)N[C@H](C(=O)N[C@H](C(=O)OCc1ccccc1)C(C)(C)C)C(C)C` [Compound 10f, Benzyl(S)-2-((S)-2-((2R,3S)-3-((S)-sec-butyl)-4-oxooxetane-2-carboxamido)-3-methylbutanamido)-3,3-dimethylbutanoate], the 50% inhibitory concentration (IC50) with MCF7 cells [6] (Homo sapiens, MCF7, 48 h) came to 1.12 ± 0.332 µM; in the series with RPMI 8226 cells [7] (Homo sapiens, RPMI-8226, 48 h) it was 1.39 ± 0.131 µM; in the series on MDA-MB-231 cells [8] (Homo sapiens, MDA-MB-231, 48 h), 1.11 ± 0.582 µM; in series [4], 3.71 ± 0.719 µM; in series [5] (Table 3, P2/P3 analogues), 0.0159 ± 0.001 µM.

For the molecule `CC[C@H](C)[C@@H]1C(=O)O[C@H]1C(=O)N[C@H](C(=O)N[C@H](C(=O)OCc1ccccc1)C(C)(C)C)C(C)(C)C` [Compound 10g, Benzyl(S)-2-((S)-2-((2R,3S)-3-((S)-sec-butyl)-4-oxooxetane-2-carboxamido)-3,3-dimethylbutanamido)-3,3-dimethylbutanoate], the IC50 in the series with MCF7 cells [6] (Homo sapiens, MCF7, 48 h) came out at 1.69 ± 0.102 µM; with RPMI 8226 cells [7] (Homo sapiens, RPMI-8226, 48 h) it was 0.866 ± 0.532 µM; in the series on MDA-MB-231 cells [8] (Homo sapiens, MDA-MB-231, 48 h) it was 0.953 ± 0.484 µM; in series [4] (setting [9]), 4.53 ± 2.18 µM; in series [5] (Table 3, P2/P3 analogues), 0.0214 ± 0.0088 µM.

Take `CC[C@H](C)[C@@H]1C(=O)O[C@H]1C(=O)N[C@@H](COCc1ccccc1)C(=O)N[C@H](C(=O)OCc1ccccc1)C(C)C` [Compound 10j, BenzylO-benzyl-N-((2R,3S)-3-((S)-sec-butyl)-4-oxooxetane-2-carbonyl)-L-seryl-L-valinate]: the 50% inhibitory concentration (IC50) in the series on MCF7 cells [6] (Table 3, MTT, 48 h) turned out to be 2.77 ± 0.791 µM; in the series with RPMI 8226 cells [7] (Table 3, MTT, 48 h), 1.43 ± 0.526 µM; with MDA-MB-231 cells [8] (Table 3, MTT, 48 h) it was 2.21 ± 0.764 µM; in series [4] (setting [9]), 0.792 ± 0.24 µM; in series [5] (Table 3, P2/P3 analogues), 0.0069 ± 0.0002 µM.

With `CC[C@H](C)[C@@H]1C(=O)O[C@H]1C(=O)N[C@H](C(=O)N[C@H](C(=O)OCc1ccc(Cl)cc1)C(C)C)C(C)C` [Compound 11b, 4-chlorobenzyl((2R,3S)-3-((S)-sec-butyl)-4-oxooxetane-2-carbonyl)-L-valyl-L-valinate], the IC50 turned out to be 0.954 ± 0.351 µM with MCF7 cells [1]; 0.307 ± 0.166 µM in the series on MDA-MB-231 cells [2]; 0.088 ± 0.012 µM with RPMI 8226 cells [3]; 0.0102 ± 0.007 µM in series [5] (Table 4, P4 analogues).

As to `CC[C@H](C)[C@@H]1C(=O)O[C@H]1C(=O)N[C@H](C(=O)N[C@H](C(=O)OCC1CCCCC1)C(C)C)C(C)C` [Compound 11c, Cyclohexylmethyl((2R,3S)-3-((S)-sec-butyl)-4-oxooxetane-2-carbonyl)-L-valyl-L-valinate], the IC50 in the series on MCF7 cells [1] turned out to be 4.57 ± 1.65 µM; in the series with MDA-MB-231 cells [2], 1.93 ± 0.917 µM; in the series on RPMI 8226 cells [3], 0.461 ± 0.194 µM; in series [5] (Table 4, P4 analogues) it was 0.013 ± 0.0052 µM.

For `CC[C@H](C)[C@@H]1C(=O)O[C@H]1C(=O)N[C@H](C(=O)N[C@H](C(=O)OCC(C)C)C(C)C)C(C)C` [Compound 11d, Isobutyl((2R,3S)-3-((S)-sec-butyl)-4-oxooxetane-2-carbonyl)-L-valyl-L-valinate], the IC50 in the series with MCF7 cells [1] came out at 0.634 ± 0.072 µM; in the series with MDA-MB-231 cells [2], 0.355 ± 0.123 µM; with RPMI 8226 cells [3] it was 0.099 ± 0.007 µM; in series [5] (Table 4, P4 analogues), 0.0094 ± 0.0037 µM.

As for `C=CCCOC(=O)[C@@H](NC(=O)[C@@H](NC(=O)[C@@H]1OC(=O)[C@H]1[C@@H](C)CC)C(C)C)C(C)C` [Compound 11g, But-3-en-1-yl((2R,3S)-3-((S)-sec-butyl)-4-oxooxetane-2-carbonyl)-L-valyl-L-valinate], the IC50 is 0.752 ± 0.384 µM in the series with MCF7 cells [1]; 0.361 ± 0.043 µM in the series on MDA-MB-231 cells [2]; 0.264 ± 0.048 µM in the series with RPMI 8226 cells [3]; 0.0087 ± 0.002 µM in series [5] (Table 4, P4 analogues).
